Test results published in ChEMBL document CHEMBL1201862, “PubChem BioAssay data set” (2004).
The source made the active and inactive calls.

Tests used:
[1] = target: T1, Kappa-type opioid receptor (Homo sapiens, UniProt P41145); experiment: SAR analysis of small molecule agonists of the kappa opioid receptor via a luminescent beta-arrestin assay. [Related pubchem assays (depositor defined):AID1777, AID1786, AID1966, AID2133, AID2136, AID2348, AID2352, AID2357, AID2359, AID2370, AID2420, AID2478, AID2491, AID2492, AID2493, AID2497, AID2498, AID2500, AID449737, AID488822, AID488842]; type: functional
Mu-type opioid receptor [2] = target: T2, Mu-type opioid receptor (Homo sapiens, UniProt P35372); experiment: mu opioid receptor activators, image-based, SAR follow-up (AID 2352); type: functional
[3] = target: T3, Delta-type opioid receptor (Homo sapiens, UniProt P41143); experiment: DOR agonists, SAR follow-up, image-based (AID 2370); type: functional
[4] = target: T1, Kappa-type opioid receptor; experiment: kappa opioid receptor blockers, image-based, SAR follow-up (AID 2348); type: functional
Mu-type opioid receptor [5] = target: T2, Mu-type opioid receptor; experiment: mu opioid receptor blockers – image-based, SAR follow-up (AID 2420); type: functional;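 also: compounds added before stimulation of receptor with agonist DAMGO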
[6] = target: T1, Kappa-type opioid receptor; experiment: kappa opioid receptor activation potency – imaging, image-based, SAR follow-up (AID 2359); type: functional
[7] = target: T3, Delta-type opioid receptor; experiment: delta opioid receptor blockers – image-based, SAR follow-up (AID 2357); type: functional
[8] = target: T4, Mannose-6-phosphate isomerase (Homo sapiens, UniProt P34949); experiment: phosphomannose isomerase inhibition – biochemical, fluorescence intensity, confirmation (AID 1535)
T4 sequence (P34949 whole entry): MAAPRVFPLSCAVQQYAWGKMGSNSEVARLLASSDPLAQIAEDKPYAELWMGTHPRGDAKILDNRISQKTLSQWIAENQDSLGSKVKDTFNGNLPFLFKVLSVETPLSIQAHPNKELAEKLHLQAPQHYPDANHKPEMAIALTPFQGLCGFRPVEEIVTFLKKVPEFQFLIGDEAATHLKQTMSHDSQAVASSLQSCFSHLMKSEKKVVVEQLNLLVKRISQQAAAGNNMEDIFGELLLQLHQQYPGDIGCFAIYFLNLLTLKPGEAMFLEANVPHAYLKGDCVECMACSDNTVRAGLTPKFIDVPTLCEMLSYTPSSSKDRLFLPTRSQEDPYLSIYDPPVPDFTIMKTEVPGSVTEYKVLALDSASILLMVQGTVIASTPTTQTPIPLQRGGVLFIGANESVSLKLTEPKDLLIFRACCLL

Phosphomannomutase 2 = Phosphomannomutase 2 (Homo sapiens, UniProt O15305); experiment: Counter screen SAR assay for PMM2 inhibitors via a fluorescence intensity assay. [Related pubchem assays (depositor defined):AID1545, AID1574]
Sequence of Phosphomannomutase 2 (O15305 whole entry): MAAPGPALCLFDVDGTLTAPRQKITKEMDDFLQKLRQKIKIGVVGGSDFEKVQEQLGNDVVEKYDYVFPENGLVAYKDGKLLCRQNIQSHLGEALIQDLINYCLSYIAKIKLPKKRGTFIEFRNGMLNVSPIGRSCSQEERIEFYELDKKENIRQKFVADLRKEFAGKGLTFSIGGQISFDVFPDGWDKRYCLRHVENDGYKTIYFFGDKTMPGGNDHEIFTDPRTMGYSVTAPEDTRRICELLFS

T1 sequence (P41145 whole entry): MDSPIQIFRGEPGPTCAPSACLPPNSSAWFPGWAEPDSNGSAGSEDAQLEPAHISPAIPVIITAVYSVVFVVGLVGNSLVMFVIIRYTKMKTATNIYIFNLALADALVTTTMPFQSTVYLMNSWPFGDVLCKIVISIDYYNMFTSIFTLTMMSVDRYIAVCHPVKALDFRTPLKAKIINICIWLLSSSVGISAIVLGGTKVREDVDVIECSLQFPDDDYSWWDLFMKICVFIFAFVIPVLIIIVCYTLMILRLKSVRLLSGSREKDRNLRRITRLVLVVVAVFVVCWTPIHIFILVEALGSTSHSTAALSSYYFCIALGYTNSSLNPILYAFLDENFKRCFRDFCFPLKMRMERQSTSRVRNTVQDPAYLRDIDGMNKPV
T2 sequence (P35372 whole entry): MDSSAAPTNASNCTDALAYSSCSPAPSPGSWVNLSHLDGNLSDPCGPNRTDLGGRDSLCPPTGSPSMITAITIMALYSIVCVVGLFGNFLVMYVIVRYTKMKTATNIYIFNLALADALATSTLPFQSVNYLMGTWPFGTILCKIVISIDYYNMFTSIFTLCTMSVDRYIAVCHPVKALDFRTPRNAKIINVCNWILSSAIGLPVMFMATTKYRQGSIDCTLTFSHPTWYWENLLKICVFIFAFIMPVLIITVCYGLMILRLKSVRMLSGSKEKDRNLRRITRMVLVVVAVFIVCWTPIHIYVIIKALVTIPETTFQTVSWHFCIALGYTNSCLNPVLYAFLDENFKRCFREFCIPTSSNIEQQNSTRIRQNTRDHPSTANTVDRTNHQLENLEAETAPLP
T3 sequence (P41143 whole entry): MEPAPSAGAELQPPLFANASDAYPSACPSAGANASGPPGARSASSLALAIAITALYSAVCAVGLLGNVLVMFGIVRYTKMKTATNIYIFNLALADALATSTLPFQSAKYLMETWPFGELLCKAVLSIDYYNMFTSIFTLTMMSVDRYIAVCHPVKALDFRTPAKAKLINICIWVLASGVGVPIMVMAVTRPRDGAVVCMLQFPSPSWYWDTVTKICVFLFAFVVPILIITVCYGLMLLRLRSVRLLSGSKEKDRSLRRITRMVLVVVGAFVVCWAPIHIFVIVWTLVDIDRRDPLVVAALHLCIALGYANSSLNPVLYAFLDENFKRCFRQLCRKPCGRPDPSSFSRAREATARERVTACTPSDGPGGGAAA

SMILES | EC50 [1] | EC50 (Mu-type opioid receptor [2]) | EC50 [3] | IC50 [4] | IC50 (Mu-type opioid receptor [5]) | EC50 [6] | IC50 [7] | IC50 [8] | IC50 (Phosphomannomutase 2)
O=C(c1ccccn1)N(Cc1cc2ccccc2[nH]c1=O)C1CCCCC1 | > 10 µM (inactive) | > 32 µM (inactive) | > 32 µM (inactive) | > 32 µM (inactive) | > 32 µM (inactive) | 18.1 µM (inactive) | > 32 µM (inactive) |  | 
COc1ccc(C)c(/N=c2\ssnc2Cl)c1 |  |  |  |  |  |  |  | 49.9 µM (active) | > 100 µM (inactive)
